Consider six compounds from US11510993B2, “Antibody drug conjugate for anti-inflammatory applications” (Merck Sharp & Dohme Corp., priority 2015, dated 2022).

For data set [1], the system named is GILZ mRNA in 786-O cells (CD74 negative renal carcinoma). Put plainly: GILZ mRNA induction in 786-O cells (RT-PCR). It counts as cell-based, human. Conditions: 786-0 cells (CD74(—)), 18 hours; for Emax: GILZ mRNA relative fold of change; for EC50: Homo sapiens, GILZ mRNA, free drug. Here is the method:
(§1) In vitro activity and targeted delivery of ADC 12-4, 12-5, 12-6, 12-7, 12-9, 12-10, the isotype-matched negative controls 12-11, 12-12, and naked anti-hCD74 (LL1) control were assessed in HUT-78 an SUDHL-6 cells (CD74 positive T and B lymphoma cell lines respectively) as well as 786-O cells (a CD74 negative renal carcinoma cell line). The cells were treated with individual ADC, anti-hCD74 antibody, or budesonide (Bud) for 18 hours and then glucocorticoid-induced leucine zipper (GILZ) mRNA, a glucocorticoid-regulated gene, was measured by RT-PCR. […] (The activity at the highest concentration in 786-O cells may be due to impurity of the sample or possible low CD74 expression in cells.). The overall activity profile of the ADC is consistent with targeted delivery of a payload (e.g. dexamethasone or budesonide) that is dependent on the binding and internalization of the antibody with its antigen on the cell surface, and on the efficiency of linker cleavage inside the cells.
(§2) The quantitation of Glucocorticoid-induced leucine zipper (GILZ) mRNA expression was determined by real time-PCR. In brief, actively growing cells were harvested and then resuspended in the assay buffer (HBSS plus 2% FBS) at concentration of 1.1×10^6/ml. 5×10^4 cells/well in 45 μl volume were plated to Greiner 384 well v-bottom reagent plates (Ref #781280). […] After 18 hour incubation, the cells were lysed, and the lysates were used for cDNA synthesis and real-time PCR, according to manufacturer's instructions in TaqMan Gene Expression Cells-to-CT™ Kit (Invitrogen, Carlsbad, Calif.). Specific primers against human GILZ and GAPDH were purchased from the Life Technologies (Invitrogen, Carlsbad, Calif.). Real-time PCR reactions were performed on the Applied Biosystems 7900 HT Fast Real-Time PCR System. Thermal cycling conditions consisted of an initial UDG incubation hold (50° C., 2 min) denaturing and enzyme activation step (95° C., 2 min) followed by 40 cycles of denaturing (95° C., 15 s), annealing and extending (60° C., 1 min). The mRNA levels were normalized to GAPDH (internal control) using the formula Δ threshold cycle (CT)=CT target−CT reference. The differential expression signal were expressed as delta Ct (ΔCt) by subtracting the Ct values of the un-stimulated samples (containing only assay buffer or DMSO vehicle) from those of the stimulated samples and expressed as relative fold of change using the formula: 2^ΔΔCT. The graphs were generated in GraphPad Prism and the EC50 values were calculated with non-linear regression curve fit of the data in GraphPad Prism.

The subject of data set [2] is GILZ mRNA in SUDHL-6 cells (CD74 positive B lymphoma). Put plainly: GILZ mRNA induction in SUDHL-6 cells (RT-PCR). Format: cell-based, human. Conditions: 18 hours; for Emax: GILZ mRNA relative fold of change; for EC50: Homo sapiens, SU-DHL-6, GILZ mRNA, free drug. Here is the method:
as §1, §2

The test system of data set [3] is GILZ mRNA in HUT-78 cells (CD74 positive T lymphoma). The data set is described as follows: GILZ mRNA induction in HUT-78 cells (RT-PCR). It counts as cell-based, human. Conditions: 18 hours; for Emax: GILZ mRNA relative fold of change; for EC50: Homo sapiens, HuT78, GILZ mRNA, free drug. How it is done: as §1, §2
Data set [4] can be described thus: In vitro stability of drug-linkers in human whole blood (parent and released dexamethasone, LC-MS/MS).
Protocol: General Experimental Procedure Human Blood Incubation Human blood was collected the morning of the experiment from at least 3 individuals using K2EDTA as the anticoagulant. An equal volume from each individual was combined for use in the experiment. The experiment started no more than 2 hours after the blood collection. All drug-linker conjugates were solubilized in DMSO to form each 10 mM stock solution. Dosing solution for each linker was prepared by serial dilution of each stock solution using 1:3 acetonitrile:water. All solutions were kept on ice during the experiment.
Human blood was pre-warmed in a 37° C. water bath in an appropriate volume to collect samples over a time course from 0 through 6 hours. Incubating blood was mixed well just prior to sampling to give a homogenous mixture. Aliquots of blood were removed at appropriate time points, added to cold stopping solution, which was methanol containing an appropriate internal standard, and mixed rigorously. The samples were centrifuged at 4000 RPM for 10 minutes after which equal volumes of the supernatant fractions were diluted with cold deionized water. The samples were then ready for analysis.
(§3) A Thermo LX-2 ultra-performance liquid chromatography system coupled with a Sciex API5000 triple quadrupole mass spectrometer was used for the analysis. The payload and drug-linkers were retained and separated by a C18 column and detected by the mass spectrometer. […] Samples were kept in cold stack set at 5° C.
The nature of data set [5]: Solubility of drug-linkers in 20% MeCN/H2O. It counts as physicochemical. Conditions: tested at a concentration of 10 mg/mL. Here is the method:
The solubility of exemplary drug-linker conjugates in aqueous solutions was evaluated. Linkers utilized in drug conjugates may have aqueous solubility to enable conjugation in aqueous media amenable to protein solubilization. Furthermore, linkers with aqueous solubility are considered hydrophilic, and may confer to the drug conjugate a reduced propensity to aggregate relative to standard hydrophobic linkers in the literature. The following exemplary drug-linkers were tested in an aqueous solution comprising 20% acetonitrile (MeCN/H2O) for solubility at a concentration of 10 mg/mL.

A short description of data set [6]: In vitro stability of drug-linkers in rat liver lysosomal lysate (parent and released dexamethasone, LC-MS/MS). Conditions: for rate of dexamethasone release in rat lysosomal extract (in words): compared with 3-4, 5-3 releasing faster than 4-3.
Protocol: Rat Liver lysosomes were available commercially with a pool of 6 animals. All linker compounds were solubilized in DMSO to form each 10 mM stock solution. Dosing solution for each linker was prepared by serial dilution of each stock solution using 1:3 acetonitrile: water. All solutions were kept on ice during the experiment.
Rat lysosomes were pre-warmed in a 37° C. water bath in an appropriate volume to collect samples over a time course from 0 minutes through 6 hours. Incubating lysosomes were mixed well just prior to sampling to give a homogenous mixture. Aliquots of lysosomes were removed at appropriate time points, added to cold stopping solution, which was methanol containing an appropriate internal standard, and mixed rigorously. The samples were centrifuged at 4000 RPM for 10 minutes after which equal volumes of supernatant were diluted with cold deionized water. The samples were ready for analysis.
as §3
Assay in data set [7]: not given
This is another data set of the same source.

[8] abbreviates: Matrix spiking (lysosomes pretreated with stopping reagent).

Where two headings read alike, the source gives them in different places.

Consider `CCC(=O)O[C@]1(C(=O)SCF)[C@H](C)C[C@H]2[C@@H]3C[C@H](F)C4=CC(=O)C=C[C@]4(C)[C@@]3(F)[C@@H](O)C[C@@]21C` [Fluticasone Propionate, fluticasone propionate], for which the Emax in data set [1] amounted to 25.38; in data set [2], 15.78; in data set [3] it was 10.27. The EC50 in data set [1] is 460 pM; in data set [2], 520 pM; in data set [3], 450 pM.
As for “CD74 Ab: anti-CD74 antibody LL1, HC SEQ ID NO:69, LC SEQ ID NO:73, pAzF at position 121”, the Emax in data set [1] was determined as 1.02; in data set [2] it was 1.02; in data set [3] it was 1.34.
On to `C[C@@H]1C[C@H]2[C@@H]3CCC4=CC(=O)C=C[C@]4(C)[C@@]3(F)[C@@H](O)C[C@]2(C)[C@@]1(O)C(=O)COP(=O)(O)Oc1ccc(NC(=O)COC2C#CCCCCC2)cc1` (stereo partly drawn) [Drug Linker 5-3, 4-(2-(cyclooct-2-yn-1-yloxy)acetamido)phenyl (2-((8S,9R,10S,11S,13S,14S,16R,17R)-9-fluoro-11,17-dihydroxy-10,13,16-trimethyl-3-oxo-6,7,8,9,10,11,12,13,14,15,16,17-dodecahydro-3H-cyclopenta[a]phenanthren-17-yl)-2-oxoethyl) hydrogen phosphate], for which the “Calculated Conc. for each compound in human whole blood” value in data set [4] (0 m, 37° C.) is 1299 nM; in data set [4] (5 m, 37° C.), 1251 nM; in data set [4] (15 m, 37° C.), 1276 nM; in data set [4] (30 m, 37° C.), 1111 nM; in data set [4] (1 hr, 37° C.), 937 nM; in data set [4] (2 hr, 37° C.), 1480 nM. Moreover, the “Measured Solubility in 20% MeCN/H2O” value in data set [5] was above 10000 µg/mL. The “Calculated Conc. for each compound in rat lysomal lysate” value in data set [6] (0 m, 37° C.) is listed as 1394.08 nM; in data set [6] (5 m, 37° C.), 1295.86 nM; in data set [6] (10 m, 37° C.), 1278.4 nM; in data set [6] (15 m, 37° C.), 1407.73 nM; in data set [6] (30 m, 37° C.), 1175.39 nM; in data set [6] (1 hr, 37° C.), 970.65 nM. Also, the “Calculated Conc. for each compound in rat lysomal lysate” value in data set [6] (2 hr, 37° C.) is on record as 743.45 nM; in data set [6] (3 hr, 37° C.), 500.41 nM; in data set [6] (6 hr, 37° C.), 221.03 nM; in data set [6] (setting [8]) it was 2555.29 nM. Also, the “rate of dexamethasone release in rat lysosomal extract (in words)” value in data set [6] was “more slowly released”.
`C[C@@H]1C[C@H]2[C@@H]3CCC4=CC(=O)C=C[C@]4(C)[C@@]3(F)[C@@H](O)C[C@]2(C)[C@@]1(O)C(=O)CO` [Dexamethasone, dexamethasone, reference compound]: the “Calculated Conc. for each compound in human whole blood” value in data set [4] (0 m, 37° C.) is listed as 1687 nM; in data set [4] (20 m, 37° C.) it was 2409 nM; in data set [4] (1 hr, 37° C.), 2224 nM; in data set [4] (3 hr, 37° C.) it was 1502 nM; in data set [4] (6 hr, 37° C.), 2792 nM; in data set [4] (Matrix spiking (time 0 sample, blood pretreated with stopping reagent)), 2939 nM. For the same compound, the “Calculated Conc. for each compound in rat lysomal lysate” value was 1456.4 nM in data set [6] (0 m, 37° C.); 1851.2 nM in data set [6] (5 m, 37° C.); 1640.8 nM in data set [6] (10 m, 37° C.); 1666.7 nM in data set [6] (15 m, 37° C.); 1602.6 nM in data set [6] (30 m, 37° C.); 1576.8 nM in data set [6] (1 hr, 37° C.). The “Calculated Conc. for each compound in rat lysomal lysate” value in data set [6] (2 hr, 37° C.) was 1681.0 nM; in data set [6] (3 hr, 37° C.) it was 1689.7 nM; in data set [6] (6 hr, 37° C.) it was 1689.8 nM; in data set [6] (setting [8]), 2059.0 nM.
Regarding `C[C@@H]1C[C@H]2[C@@H]3CCC4=CC(=O)C=C[C@]4(C)[C@@]3(F)[C@@H](O)C[C@]2(C)[C@@]1(O)C(=O)COP(=O)(O)OCCNC(=O)COC1C#CCCCCC1` (stereo partly drawn) [Drug Linker 4-3, 2-(2-(cyclooct-2-yn-1-yloxy)acetamido)ethyl (2-((8S,9R,10S,11S,13S,14S,16R,17R)-9-fluoro-11,17-dihydroxy-10,13,16-trimethyl-3-oxo-6,7,8,9,10,11,12,13,14,15,16,17-dodecahydro-3H-cyclopenta[a]phenanthren-17-yl)-2-oxoethyl) hydrogen phosphate], the “Calculated Conc. for dexamethasone rat lysomeal lysate” value is, setting by setting: (0 min) 0.9 nM; (5 min) 14.5 nM; (10 min) 14.2 nM; (15 min) 22.3 nM; (30 min) 28.9 nM; (1 h) 41.6 nM. Also, the “Calculated Conc. for dexamethasone rat lysomeal lysate” value (2 h) is 72.5 nM, the “Calculated Conc. for dexamethasone rat lysomeal lysate” value (3 h) is recorded as 90.2 nM and the “Calculated Conc. for dexamethasone rat lysomeal lysate” value (6 h) was 141.9 nM. In addition, the “Calculated Conc. for each compound in rat lysomal lysate” value is listed as 888.8 nM (0 min); 1156.1 nM (5 min); 983.4 nM (10 min); 1032.6 nM (15 min); 980.1 nM (30 min); 882.4 nM (1 h). In addition, the “Calculated Conc. for each compound in rat lysomal lysate” value (2 h) is 880.1 nM, the “Calculated Conc. for each compound in rat lysomal lysate” value (3 h) is given as 903.8 nM and the “Calculated Conc. for each compound in rat lysomal lysate” value (6 h) is listed as 858.9 nM. Also, the “Calculated Conc. for each compound in human whole blood” value is given as 1539 nM in data set [7] (0 min); 1861 nM in data set [7] (20 min); 1619 nM in data set [7] (1 h); 1677 nM in data set [7] (3 h); 2040 nM in data set [7] (6 h). Further, the “Calculated Conc. for dexamethasone in human whole blood” value was 0 nM in data set [7] (20 min), 0 nM in data set [7] (1 h), 1 nM in data set [7] (3 h) and 3 nM in data set [7] (6 h). In addition, the “rate of dexamethasone release in rat lysosomal extract (in words)” value in data set [6] was “more slowly released”.
Take `CCCC1O[C@@H]2C[C@H]3[C@@H]4CCC5=CC(=O)C=C[C@]5(C)[C@H]4[C@@H](O)C[C@]3(C)[C@]2(C(=O)CO)O1` (some centres unmarked) [Budesonide, budesonide]: the Emax in data set [1] stood at 25.68; in data set [2], 14.33; in data set [3], 9.03. The values for the EC50 in data set [1], in data set [2] and in data set [3] were 580 pM, 2210 pM and 650 pM, respectively.
